Literature values in patent publication US8338423B2, “Compositions for the treatment of hyperphenylalaninemia” (Universidad de Zaragoza, priority 2007, dated 2012).

Biological target: T1, wt-PAH (Homo sapiens, UniProt P00439)
T1 construct: made in house; host or cells: E. coli
T1 sequence (P00439 1-452): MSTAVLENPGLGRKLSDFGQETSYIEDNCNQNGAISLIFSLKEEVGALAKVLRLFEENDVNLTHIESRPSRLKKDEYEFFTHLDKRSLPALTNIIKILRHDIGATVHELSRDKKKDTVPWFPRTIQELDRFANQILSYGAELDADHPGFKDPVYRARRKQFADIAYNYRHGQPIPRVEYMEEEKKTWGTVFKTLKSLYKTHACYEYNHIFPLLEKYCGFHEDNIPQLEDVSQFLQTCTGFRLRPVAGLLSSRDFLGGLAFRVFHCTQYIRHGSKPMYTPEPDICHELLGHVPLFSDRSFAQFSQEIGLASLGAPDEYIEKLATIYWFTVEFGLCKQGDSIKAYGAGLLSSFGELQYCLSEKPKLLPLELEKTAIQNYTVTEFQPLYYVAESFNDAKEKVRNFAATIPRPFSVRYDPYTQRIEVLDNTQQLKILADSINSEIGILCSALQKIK
Conditions: comparison values; read-out: Kl of likely physiological inhibitors of PAH; cited from earlier work

Question: For `CC(O)C(O)C1CNc2c(nc(N)[nH]c2=O)N1` (stereo not drawn) [Compound 7S-BH4], which Ki is on record?
Answer: 2 to 5 µM

Question: With `C[C@H](O)[C@H](O)C1=Nc2c(nc(N)[nH]c2=O)NC1` [BH2] as the compound, how does the Ki read?
Answer: ~17 µM
